# Data as given in PMC5218480 (PLoS ONE, 2017).
# Test system: MV-4-11 cells
# Assay: Gene expression microarray analysis (Affymetrix PrimeView) and GSEA
# Type: cell-based, human
# Parameters: RFU PODN (11730768_x_at) / Fold change /veh PODN (11730768_x_at) / RFU LINC00158 (11744669_a_at) / Fold change /veh LINC00158 (11744669_a_at) / RFU DUSP10 (11751237_a_at) / Fold change /veh DUSP10 (11751237_a_at) / RFU ID3 (11757404_x_at) / Fold change /veh ID3 (11757404_x_at) / RFU PLEKHG5 (11737974_s_at) / Fold change /veh PLEKHG5 (11737974_s_at) / RFU LRRC4B (11730491_at) / Fold change /veh LRRC4B (11730491_at) / RFU GIMAP4 (11747438_a_at) / Fold change /veh GIMAP4 (11747438_a_at) / RFU KRT8 (11758183_x_at) / Fold change /veh KRT8 (11758183_x_at) / RFU CNN1 (11734310_a_at) / Fold change /veh CNN1 (11734310_a_at) / RFU VPS37D (11726825_at) / Fold change /veh VPS37D (11726825_at) / RFU C10orf10 (11716522_x_at) / Fold change /veh C10orf10 (11716522_x_at) / RFU KIR2DL2 /// KIR2DL4 /// KIR2DL5A /// KIR2DL5B /// KIR2DS1 /// KIR2DS2 /// KIR2DS3 /// KIR2DS4 /// KIR3DL3 /// KIR3DL3 /// KIR3DS1 (11738374_at) / Fold change /veh KIR2DL2 /// KIR2DL4 /// KIR2DL5A /// KIR2DL5B /// KIR2DS1 /// KIR2DS2 /// KIR2DS3 /// KIR2DS4 /// KIR3DL3 /// KIR3DL3 /// KIR3DS1 (11738374_at) / RFU C1QL1 (11718748_at) / Fold change /veh C1QL1 (11718748_at) / RFU TMPRSS4 (11747572_a_at) / Fold change /veh TMPRSS4 (11747572_a_at) / RFU HAMP (11756126_x_at) / Fold change /veh HAMP (11756126_x_at) / RFU RNFT2 (11725882_a_at) / Fold change /veh RNFT2 (11725882_a_at) / RFU NR4A2 (11747474_a_at) / Fold change /veh NR4A2 (11747474_a_at) / RFU ABCC12 (11746883_a_at) / Fold change /veh ABCC12 (11746883_a_at) / RFU TMEM136 (11760407_x_at) / Fold change /veh TMEM136 (11760407_x_at) / RFU CLDN22 /// WWC2 (11732394_at) / Fold change /veh CLDN22 /// WWC2 (11732394_at) / RFU HLA-DPB1 (11760878_x_at) / Fold change /veh HLA-DPB1 (11760878_x_at) / RFU SPINT1 (11716480_a_at) / Fold change /veh SPINT1 (11716480_a_at) / RFU GAP43 (11754022_s_at) / Fold change /veh GAP43 (11754022_s_at) / RFU A4GNT (11735810_at) / Fold change /veh A4GNT (11735810_at) / RFU PRB3 (11715151_x_at) / Fold change /veh PRB3 (11715151_x_at) / RFU TUBB4B (11761932_at) / Fold change /veh TUBB4B (11761932_at) / RFU CAPN14 (11732068_a_at) / Fold change /veh CAPN14 (11732068_a_at) / RFU TMCC2 (11721928_a_at) / Fold change /veh TMCC2 (11721928_a_at) / RFU IRGQ (11745062_a_at) / Fold change /veh IRGQ (11745062_a_at) / RFU FAM174B (11720279_a_at) / Fold change /veh FAM174B (11720279_a_at) / RFU TMPRSS4 (11748680_a_at) / Fold change /veh TMPRSS4 (11748680_a_at) / RFU FAM212B (11763350_a_at) / Fold change /veh FAM212B (11763350_a_at) / RFU PLEKHG5 (11743358_a_at) / Fold change /veh PLEKHG5 (11743358_a_at) / RFU ZSCAN30 (11745921_a_at) / Fold change /veh ZSCAN30 (11745921_a_at) / RFU CMKLR1 (11741424_a_at) / Fold change /veh CMKLR1 (11741424_a_at) / RFU LOC101060620 /// MAPK8IP1 (11723275_at) / Fold change /veh LOC101060620 /// MAPK8IP1 (11723275_at) / RFU SPTSSB (11747773_x_at) / Fold change /veh SPTSSB (11747773_x_at) / RFU PRSS12 (11739890_at) / Fold change /veh PRSS12 (11739890_at) / RFU BIN1 (11741810_x_at) / Fold change /veh BIN1 (11741810_x_at) / RFU WNT11 (11732464_a_at) / Fold change /veh WNT11 (11732464_a_at) / RFU C10orf10 (11716521_a_at) / Fold change /veh C10orf10 (11716521_a_at) / RFU C5orf56 (11738089_at) / Fold change /veh C5orf56 (11738089_at) / RFU CYB561 (11721691_x_at) / Fold change /veh CYB561 (11721691_x_at) / RFU ANKRD19P (11752326_a_at) / Fold change /veh ANKRD19P (11752326_a_at) / RFU OR2T12 /// OR2T33 /// OR2T8 (11738714_s_at) / Fold change /veh OR2T12 /// OR2T33 /// OR2T8 (11738714_s_at) / RFU VCAN (11748164_a_at) / Fold change /veh VCAN (11748164_a_at) / RFU JSRP1 (11732532_at) / Fold change /veh JSRP1 (11732532_at) / RFU KRTAP10-11 (11738290_x_at) / Fold change /veh KRTAP10-11 (11738290_x_at) / RFU MYO3A (11730013_a_at) / Fold change /veh MYO3A (11730013_a_at) / RFU EBF3 (11725865_a_at) / Fold change /veh EBF3 (11725865_a_at) / RFU CAMK2N1 (11719241_x_at) / Fold change /veh CAMK2N1 (11719241_x_at) / RFU C5orf56 (11738088_a_at) / Fold change /veh C5orf56 (11738088_a_at) / RFU OLFML3 (11715873_a_at) / Fold change /veh OLFML3 (11715873_a_at) / RFU LOC100653217 /// NTM (11731650_a_at) / Fold change /veh LOC100653217 /// NTM (11731650_a_at) / RFU MAPK11 (11762145_a_at) / Fold change /veh MAPK11 (11762145_a_at) / RFU FIZ1 (11724087_x_at) / Fold change /veh FIZ1 (11724087_x_at) / RFU OASL (11726364_x_at) / Fold change /veh OASL (11726364_x_at) / RFU SOX15 (11748057_x_at) / Fold change /veh SOX15 (11748057_x_at) / RFU CD79A (11719716_a_at) / Fold change /veh CD79A (11719716_a_at) / RFU HIST1H1D (11736915_at) / Fold change /veh HIST1H1D (11736915_at) / RFU CASKIN2 (11723855_a_at) / Fold change /veh CASKIN2 (11723855_a_at) / RFU LOC730098 (11760151_x_at) / Fold change /veh LOC730098 (11760151_x_at) / RFU OR4N2 (11742367_at) / Fold change /veh OR4N2 (11742367_at) / RFU PRRT2 (11749266_a_at) / Fold change /veh PRRT2 (11749266_a_at) / RFU SNX32 (11753110_a_at) / Fold change /veh SNX32 (11753110_a_at) / RFU CDHR5 (11726645_a_at) / Fold change /veh CDHR5 (11726645_a_at) / RFU RCAN1 (11760418_a_at) / Fold change /veh RCAN1 (11760418_a_at) / RFU FAM167A (11723789_a_at) / Fold change /veh FAM167A (11723789_a_at) / RFU FAM26E (11764081_at) / Fold change /veh FAM26E (11764081_at) / RFU ISYNA1 (11749810_s_at) / Fold change /veh ISYNA1 (11749810_s_at) / RFU ACY1 (11761880_at) / Fold change /veh ACY1 (11761880_at) / RFU 11764098_at / Fold change /veh 11764098_at / RFU SAMD14 (11745864_x_at) / Fold change /veh SAMD14 (11745864_x_at) / RFU NPB (11741838_a_at) / Fold change /veh NPB (11741838_a_at) / RFU TMPRSS6 (11731388_a_at) / Fold change /veh TMPRSS6 (11731388_a_at) / RFU KRTAP10-2 (11738614_at) / Fold change /veh KRTAP10-2 (11738614_at) / RFU ARHGAP8 /// PRR5-ARHGAP8 (11727945_x_at) / Fold change /veh ARHGAP8 /// PRR5-ARHGAP8 (11727945_x_at) / RFU KRTAP5-7 /// NADSYN1 (11734609_at) / Fold change /veh KRTAP5-7 /// NADSYN1 (11734609_at) / RFU RASL12 (11751679_a_at) / Fold change /veh RASL12 (11751679_a_at) / RFU CDKN2B (11736163_a_at) / Fold change /veh CDKN2B (11736163_a_at) / RFU PRF1 (11729649_at) / Fold change /veh PRF1 (11729649_at) / RFU, ZNF638 /// ZNF638-IT1 / Fold change vs veh, ZNF638 /// ZNF638-IT1 / RFU, PANK3 / Fold change vs veh, PANK3 / RFU, SH3YL1 / Fold change vs veh, SH3YL1 / RFU, ZEB2 / Fold change vs veh, ZEB2 / RFU, NRIP1 / Fold change vs veh, NRIP1 / RFU, PTTG1IP / Fold change vs veh, PTTG1IP / RFU, CAPN2 / Fold change vs veh, CAPN2 / RFU, MED14 / Fold change vs veh, MED14 / RFU, SNORA58 / Fold change vs veh, SNORA58 / RFU, C1orf63 / Fold change vs veh, C1orf63 / RFU, LRRFIP1 / Fold change vs veh, LRRFIP1 / RFU, NDUFAF7 / Fold change vs veh, NDUFAF7 / RFU, SLC12A2 / Fold change vs veh, SLC12A2 / RFU, IBTK / Fold change vs veh, IBTK / RFU, ESF1 / Fold change vs veh, ESF1 / Fold change vs veh, TMEM50B / RFU, TAOK1 / Fold change vs veh, TAOK1 / RFU, ACBD3 / Fold change vs veh, ACBD3 / RFU, TMA16 / Fold change vs veh, TMA16 / RFU, RWDD3 / Fold change vs veh, RWDD3 / RFU, BCAT1 / Fold change vs veh, BCAT1 / RFU, EDEM3 / Fold change vs veh, EDEM3 / RFU, TMEM33 / Fold change vs veh, TMEM33 / RFU, WDR75 / Fold change vs veh, WDR75 / RFU, AHCTF1 / Fold change vs veh, AHCTF1 / RFU, TFRC / Fold change vs veh, TFRC / RFU, ZDHHC17 / Fold change vs veh, ZDHHC17 / RFU, NOM1 / Fold change vs veh, NOM1 / RFU, ARL8B / Fold change vs veh, ARL8B / RFU, ZBTB11 / Fold change vs veh, ZBTB11 / RFU, TAMM41 / Fold change vs veh, TAMM41 / RFU, KIAA1704 /// LOC100996395 / Fold change vs veh, KIAA1704 /// LOC100996395 / RFU, ING1 / Fold change vs veh, ING1 / RFU, TRMT61B / Fold change vs veh, TRMT61B / RFU, FUBP3 / Fold change vs veh, FUBP3 / RFU, TP53 / Fold change vs veh, TP53 / RFU, TNKS2 / Fold change vs veh, TNKS2 / RFU, ZFP14 / Fold change vs veh, ZFP14 / RFU, ACTR2 / Fold change vs veh, ACTR2 / RFU, PPP3R1 / Fold change vs veh, PPP3R1 / RFU, PIK3R1 / Fold change vs veh, PIK3R1 / RFU, HNRNPA1 / Fold change vs veh, HNRNPA1 / RFU, RNF170 / Fold change vs veh, RNF170 / RFU, ZNF28 / Fold change vs veh, ZNF28 / RFU, RNGTT / Fold change vs veh, RNGTT / RFU, OGT / Fold change vs veh, OGT / RFU, BRD1 / Fold change vs veh, BRD1 / RFU, MARS / Fold change vs veh, MARS / RFU, ZNF655 / Fold change vs veh, ZNF655 / RFU, FAHD1 / Fold change vs veh, FAHD1 / RFU, BDP1 / Fold change vs veh, BDP1 / RFU, LRRCC1 / Fold change vs veh, LRRCC1 / RFU, ARID1A / Fold change vs veh, ARID1A / RFU, ZNF146 / Fold change vs veh, ZNF146 / RFU, ZNF330 / Fold change vs veh, ZNF330 / RFU, GPN3 / Fold change vs veh, GPN3 / RFU, C9orf123 / Fold change vs veh, C9orf123 / RFU, N4BP2L2 / Fold change vs veh, N4BP2L2 / RFU, ARFIP1 / Fold change vs veh, ARFIP1 / RFU, FAM179B / Fold change vs veh, FAM179B / RFU, BCL10 / Fold change vs veh, BCL10 / RFU, UHRF1BP1L / Fold change vs veh, UHRF1BP1L / RFU, BET1 / Fold change vs veh, BET1 / RFU, CNOT2 / Fold change vs veh, CNOT2 / RFU, ZNF268 / Fold change vs veh, ZNF268 / Fold change vs veh, ZNF507 / RFU, DGCR2 / Fold change vs veh, DGCR2 / RFU, WDSUB1 / Fold change vs veh, WDSUB1 / Fold change vs veh, HSP90B1 /// MIR3652 / RFU, ADSS / Fold change vs veh, ADSS / RFU, GK / Fold change vs veh, GK / RFU, ZNF148 / Fold change vs veh, ZNF148 / RFU, TAF9 / Fold change vs veh, TAF9 / RFU, SLC1A5 / Fold change vs veh, SLC1A5 / RFU, SLMO2 / Fold change vs veh, SLMO2 / RFU, ABCC4 / Fold change vs veh, ABCC4 / RFU, LOC101060439 /// RAP1B / Fold change vs veh, LOC101060439 /// RAP1B / RFU, RFX7 / Fold change vs veh, RFX7 / RFU, GTPBP10 / Fold change vs veh, GTPBP10 / RFU, CNEP1R1 / Fold change vs veh, CNEP1R1 / RFU, BIVM-ERCC5 /// ERCC5 / Fold change vs veh, BIVM-ERCC5 /// ERCC5 / RFU, ILF3 / Fold change vs veh, ILF3 / RFU 11762660_at / Fold change /veh 11762660_at / RFU VCAN (11757783_s_at) / Fold change /veh VCAN (11757783_s_at) / RFU DDX43 (11728927_at) / Fold change /veh DDX43 (11728927_at) / RFU KRT8 (11758188_x_at) / Fold change /veh KRT8 (11758188_x_at) / RFU NKD1 (11759106_at) / Fold change /veh NKD1 (11759106_at) / RFU SRD5A1 (11742802_a_at) / Fold change /veh SRD5A1 (11742802_a_at) / RFU TPSAB1 /// TPSB2 (11721975_s_at) / Fold change /veh TPSAB1 /// TPSB2 (11721975_s_at) / RFU GSTM3 (11746129_a_at) / Fold change /veh GSTM3 (11746129_a_at) / RFU IL23R (11737362_x_at) / Fold change /veh IL23R (11737362_x_at) / RFU TMEM51 (11727254_a_at) / Fold change /veh TMEM51 (11727254_a_at) / RFU PIWIL2 (11732686_x_at) / Fold change /veh PIWIL2 (11732686_x_at) / RFU ORM1 (11744905_x_at) / Fold change /veh ORM1 (11744905_x_at) / RFU CCDC152 (11743942_at) / Fold change /veh CCDC152 (11743942_at) / RFU ECM1 (11717891_a_at) / Fold change /veh ECM1 (11717891_a_at) / RFU IL23R (11748794_a_at) / Fold change /veh IL23R (11748794_a_at) / RFU TNFAIP8L3 (11732012_x_at) / Fold change /veh TNFAIP8L3 (11732012_x_at) / RFU MBOAT4 (11741988_at) / Fold change /veh MBOAT4 (11741988_at) / RFU 11764193_at / Fold change /veh 11764193_at / RFU TMEM53 (11763286_at) / Fold change /veh TMEM53 (11763286_at) / RFU MAGEB2 (11727129_at) / Fold change /veh MAGEB2 (11727129_at) / RFU TMEM200A (11744735_a_at) / Fold change /veh TMEM200A (11744735_a_at) / RFU CCDC152 (11751479_a_at) / Fold change /veh CCDC152 (11751479_a_at) / RFU FAM211A (11726209_a_at) / Fold change /veh FAM211A (11726209_a_at) / RFU RGS16 (11746705_a_at) / Fold change /veh RGS16 (11746705_a_at) / RFU VCAN (11755009_s_at) / Fold change /veh VCAN (11755009_s_at) / RFU RHOB (11743442_s_at) / Fold change /veh RHOB (11743442_s_at) / RFU RGS16 (11720943_a_at) / Fold change /veh RGS16 (11720943_a_at) / RFU RGS16 (11720944_at) / Fold change /veh RGS16 (11720944_at) / RFU, VPS4B / Fold change vs veh, VPS4B / RFU, CREB1 / Fold change vs veh, CREB1 / RFU, DNAJC13 / Fold change vs veh, DNAJC13 / RFU, GNAQ / Fold change vs veh, GNAQ / RFU, CDK5R1 / Fold change vs veh, CDK5R1 / RFU, ZRANB3 / Fold change vs veh, ZRANB3 / RFU, CUL4A / Fold change vs veh, CUL4A / RFU, CCNY / Fold change vs veh, CCNY / RFU, UFL1 / Fold change vs veh, UFL1 / RFU, COG3 / Fold change vs veh, COG3 / RFU, DIAPH2 / Fold change vs veh, DIAPH2 / RFU, SKA2 / Fold change vs veh, SKA2 / RFU, AFF3 / Fold change vs veh, AFF3 / RFU, LMF1 / Fold change vs veh, LMF1 / RFU, IPO11 / Fold change vs veh, IPO11 / RFU, DFFB / Fold change vs veh, DFFB / RFU, FOXP1 / Fold change vs veh, FOXP1 / RFU, CARD8 / Fold change vs veh, CARD8 / RFU, STRN3 / Fold change vs veh, STRN3 / RFU, ADK / Fold change vs veh, ADK / RFU, RASSF2 / Fold change vs veh, RASSF2 / RFU, WIPF1 / Fold change vs veh, WIPF1 / RFU, LARP1B / Fold change vs veh, LARP1B / RFU, RASA1 / Fold change vs veh, RASA1 / RFU, RB1 / Fold change vs veh, RB1 / RFU, PPFIA1 / Fold change vs veh, PPFIA1 / RFU, MAT2A / Fold change vs veh, MAT2A / RFU, CCT5 / Fold change vs veh, CCT5 / RFU, WDR92 / Fold change vs veh, WDR92 / RFU, CUX1 / Fold change vs veh, CUX1 / RFU, TTC7A / Fold change vs veh, TTC7A / RFU, TMEM135 / Fold change vs veh, TMEM135 / RFU, DEPTOR / Fold change vs veh, DEPTOR / RFU, CPM / Fold change vs veh, CPM / RFU, DNAJB6 / Fold change vs veh, DNAJB6 / RFU, CACNA2D3 / Fold change vs veh, CACNA2D3 / RFU, DTX4 / Fold change vs veh, DTX4 / RFU, TFCP2 / Fold change vs veh, TFCP2 / RFU, GMCL1 /// GMCL1P1 / Fold change vs veh, GMCL1 /// GMCL1P1 / RFU, AEBP2 / Fold change vs veh, AEBP2 / RFU, SNHG1 /// SNORD22 /// SNORD25 /// SNORD26 /// SNORD27 /// SNORD28 /// SNORD29 /// SNORD31 / Fold change vs veh, SNHG1 /// SNORD22 /// SNORD25 /// SNORD26 /// SNORD27 /// SNORD28 /// SNORD29 /// SNORD31 / Fold change (Aza/veh), C12orf56 (ProbeSet 11735607_a_at) / Fold change (ACY-1035/veh), C12orf56 (ProbeSet 11735607_a_at) / Fold change (Aza/veh), FGFR1OP (ProbeSet 11751329_s_at) / Fold change (ACY-1035/veh), FGFR1OP (ProbeSet 11751329_s_at) / Fold change (Aza/veh), VPS36 (ProbeSet 11739960_a_at) / Fold change (ACY-1035/veh), VPS36 (ProbeSet 11739960_a_at) / RFU SYPL1 (11715823_x_at) / Fold change /veh SYPL1 (11715823_x_at) / RFU IGFBP7 (11715501_s_at) / Fold change /veh IGFBP7 (11715501_s_at) / RFU REEP3 (11722064_at) / Fold change /veh REEP3 (11722064_at) / RFU IGLL1 (11728026_x_at) / Fold change /veh IGLL1 (11728026_x_at): dose or concentration left out as unconfirmed
# Conditions: ProbeSet 11725902_s_at; LIST D
smiles,measurement,value
Nc1ccc(-c2cccs2)cc1NC(=O)c1ccc2c(c1)cc(C1CC1)n2CCN1CCOCC1 [ACY-1035],"Fold change vs veh, TMEM135",0.99
